Literature values, collected in publication PMC10177510, “A Multicenter, Open-Label, Phase I/II Study of FN-1501 in Patients with Advanced Solid Tumors” (Cancers, 2023).
Values after ≈ are worked out from the molar mass of the structure shown.

System: MV-4-11
Conditions: cited from earlier work

Structure (SMILES): CCc1nc(C(N)=O)c(Nc2ccc(N3CCC(N4CCN(C)CC4)CC3)c(OC)c2)nc1NC1CCOCC1 [gilteritinib, reference compound]
- IC50: 0.5 ng/mL (≈ 0.905 nM)
